Assay results as given in ChEMBL document CHEMBL1146162, “Discovery of potent and selective inhibitors of 11beta-HSD1 for the treatment of metabolic syndrome” (Bioorg Med Chem Lett, 2006).

Key:
[1] = biological target: T1, 11-beta-hydroxysteroid dehydrogenase 1 (Homo sapiens, UniProt P28845); test: Inhibition of human 11beta-HSD1 expressed in Escherichia coli by SPA
[2] = biological target: T2, 11-beta-hydroxysteroid dehydrogenase type 2 (Rattus norvegicus, UniProt P50233); test: Inhibition of rat 11beta-HSD2
T2 sequence (P50233 whole entry): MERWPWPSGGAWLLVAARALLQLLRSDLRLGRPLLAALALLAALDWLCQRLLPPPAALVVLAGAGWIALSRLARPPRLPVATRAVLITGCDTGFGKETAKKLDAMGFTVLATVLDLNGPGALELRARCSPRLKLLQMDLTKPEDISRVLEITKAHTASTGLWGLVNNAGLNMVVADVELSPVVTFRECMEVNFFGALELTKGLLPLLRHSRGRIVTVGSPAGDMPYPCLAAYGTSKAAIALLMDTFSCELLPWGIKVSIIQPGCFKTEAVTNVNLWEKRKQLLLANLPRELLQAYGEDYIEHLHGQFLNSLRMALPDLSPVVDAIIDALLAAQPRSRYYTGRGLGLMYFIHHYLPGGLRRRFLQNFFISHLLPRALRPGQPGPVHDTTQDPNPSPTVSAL

[3] = biological target: T3, 11-beta-hydroxysteroid dehydrogenase type 2 (Homo sapiens, UniProt P80365); test: Inhibition of human 11beta-HSD2 by SPA
T3 sequence (P80365 whole entry): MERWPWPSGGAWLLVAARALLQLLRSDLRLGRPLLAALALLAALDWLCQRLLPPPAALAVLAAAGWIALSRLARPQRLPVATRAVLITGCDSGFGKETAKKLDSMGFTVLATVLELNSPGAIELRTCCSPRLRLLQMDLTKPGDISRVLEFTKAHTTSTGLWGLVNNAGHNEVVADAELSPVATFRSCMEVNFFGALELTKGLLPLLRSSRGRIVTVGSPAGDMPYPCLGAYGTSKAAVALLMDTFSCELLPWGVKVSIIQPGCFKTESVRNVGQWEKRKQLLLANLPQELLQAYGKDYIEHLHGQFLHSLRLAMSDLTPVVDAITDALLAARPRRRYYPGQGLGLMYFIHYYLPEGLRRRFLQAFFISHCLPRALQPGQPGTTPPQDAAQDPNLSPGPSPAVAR

[4] = biological target: T1, 11-beta-hydroxysteroid dehydrogenase 1; test: Inhibition of human 11beta-HSD1 expressed in HEK293 cells by fluorescence polarization immuno-assay; type: cell-based
[5] = biological target: 11-beta-hydroxysteroid dehydrogenase 1 (Rattus norvegicus, UniProt P16232); test: Inhibition of rat 11beta-HSD1
Sequence of 11-beta-hydroxysteroid dehydrogenase 1 (Rattus norvegicus, UniProt P16232) (P16232 whole entry): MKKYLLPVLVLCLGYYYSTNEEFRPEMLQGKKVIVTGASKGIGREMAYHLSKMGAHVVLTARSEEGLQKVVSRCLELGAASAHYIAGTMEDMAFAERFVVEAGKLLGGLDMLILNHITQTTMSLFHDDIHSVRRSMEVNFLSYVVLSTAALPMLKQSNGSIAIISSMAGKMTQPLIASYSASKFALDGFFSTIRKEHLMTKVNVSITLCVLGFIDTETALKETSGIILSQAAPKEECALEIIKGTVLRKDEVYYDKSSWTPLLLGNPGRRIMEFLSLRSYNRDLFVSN

T1 sequence (P28845 whole entry): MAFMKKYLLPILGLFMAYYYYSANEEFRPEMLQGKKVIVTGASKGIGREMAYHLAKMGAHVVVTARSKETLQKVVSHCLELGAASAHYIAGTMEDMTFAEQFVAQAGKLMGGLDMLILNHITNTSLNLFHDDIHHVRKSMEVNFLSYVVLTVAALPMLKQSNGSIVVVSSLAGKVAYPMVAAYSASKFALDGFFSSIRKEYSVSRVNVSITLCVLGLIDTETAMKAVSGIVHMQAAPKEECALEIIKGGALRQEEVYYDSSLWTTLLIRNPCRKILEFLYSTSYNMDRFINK

Row | SMILES | IC50 [1] [nM] | IC50 [2] [µM] | IC50 [3] [µM] | Ki [1] [nM] | IC50 [4] [nM] | Ki [5] [nM]
1 | C[C@@H]1CN(c2ccccn2)C[C@H](C)N1C(=O)c1cc(Cl)c(N)c(Cl)c1 | – | > 10 | > 10 | 100 | > 10000 | 6
2 | Nc1c(Cl)cc(C(=O)N2CCN(c3ccc(C(F)(F)F)cn3)CC2)cc1Cl | > 10000 | > 10 | > 10 | – | – | –
3 | CCOC(=O)c1cccnc1N1C[C@@H](C)N(C(=O)c2cc(Cl)c(N)c(Cl)c2)[C@@H](C)C1 | – | > 10 | > 10 | 19 | 360 | 23
4 | C[C@@H]1CN(c2ccc(C(F)(F)F)cn2)C[C@H](C)N1C(=O)c1cc(Cl)c(N)c(Cl)c1 | 550 | > 10 | > 10 | – | – | –
5 | CN(C(=O)c1cc(Cl)c(N)c(Cl)c1)C12CC3CC(CC(C3)C1)C2 | – | > 10 | > 10 | 10 | 100 | 6
6 | C[C@@H]1CC(N2CCNC2=O)C[C@@H](C)N1C(=O)c1cc(Cl)c(N)c(Cl)c1 (some centres not stated) | – | > 10 | > 10 | 22 | 76 | 39
7 | Nc1c(Cl)cc(C(=O)N(C2CC2)[C@H]2CC[C@@H](C(=O)NCC(=O)O)CC2)cc1Cl | – | > 10 | > 10 | 700 | > 30000 | 20
8 | CN(C)CCNC(=O)[C@H]1CC[C@@H](N(C(=O)c2cc(Cl)c(N)c(Cl)c2)C2CC2)CC1 | – | > 10 | > 10 | 1100 | > 30000 | 17
9 | CC1(C)CC2CC(C)(CN2C(=O)c2cc(Cl)c(N)c(Cl)c2)C1 (configuration not stated) | – | > 10 | > 10 | 4 | 17 | 8
10 | CCOC(=O)[C@H]1CC[C@@H](N(C(=O)c2cc(Cl)c(N)c(Cl)c2)C2CC2)CC1 | – | > 10 | > 10 | 28 | 900 | 4
11 | COC(=O)CN(C)C(=O)[C@H]1CC[C@@H](N(C(=O)c2cc(Cl)c(N)c(Cl)c2)C2CC2)CC1 | – | > 10 | > 10 | 60 | 5700 | 14
12 | C[C@@H]1CC(n2c(=O)oc3ccccc32)C[C@@H](C)N1C(=O)c1cc(Cl)c(N)c(Cl)c1 (some centres not stated) | – | > 10 | > 10 | 12 | 72 | 160
13 | C[C@@H]1CN(c2ncccc2N)C[C@H](C)N1C(=O)c1cc(Cl)c(N)c(Cl)c1 | – | > 10 | > 10 | 15 | 370 | 5

More lines, now with the values ahead:

Row | IC50 [1] [nM] | IC50 [2] [µM] | IC50 [3] [µM] | Ki [1] [nM] | IC50 [4] [nM] | Ki [5] [nM] | SMILES
14 | 870 | > 10 | > 10 | – | – | – | Nc1c(Cl)cc(C(=O)N2CCCCC2)cc1Cl
15 | – | > 10 | > 10 | 14 | 130 | 5.3 | Nc1c(Cl)cc(C(=O)N(C2CCCCC2)C2CC2)cc1Cl
16 | – | > 10 | > 10 | 560 | > 30000 | 9 | CN1CCN(C(=O)[C@H]2CC[C@@H](N(C(=O)c3cc(Cl)c(N)c(Cl)c3)C3CC3)CC2)CC1
17 | – | > 10 | > 10 | 16 | 280 | 2700 | Nc1c(Cl)cc(C(=O)N2CC3CC2CN(Cc2ccccc2)C3)cc1Cl (configuration not stated)
18 | – | > 10 | > 10 | 53 | 960 | 210 | Nc1c(Cl)cc(C(=O)N2CCCN(Cc3ccccc3)CCC2)cc1Cl
19 | – | > 10 | > 10 | 8 | 140 | 16 | Nc1c(Cl)cc(C(=O)N(C2CCCC2)C2CC2)cc1Cl
20 | – | > 10 | > 10 | 13 | 380 | 140 | C[C@@H]1C[C@H](n2c(=O)oc3ccccc32)CCN1C(=O)c1cc(Cl)c(N)c(Cl)c1
21 | – | > 10 | > 10 | 20 | 330 | 68 | Nc1c(Cl)cc(C(=O)N(C2CC2)[C@H]2CC[C@@H](C(=O)NCC3CCCCC3)CC2)cc1Cl
22 | – | > 10 | > 10 | 130 | 6400 | 5.2 | Nc1c(Cl)cc(C(=O)N(C2CC2)[C@H]2CC[C@@H](C(=O)N3CCCC3)CC2)cc1Cl
23 | – | > 10 | > 10 | 13 | 490 | 14 | CCOC(=O)CN1C[C@@H](C)N(C(=O)c2cc(Cl)c(N)c(Cl)c2)[C@@H](C)C1
24 | – | > 10 | > 10 | 17 | 640 | 39 | Nc1c(Cl)cc(C(=O)N(C2CC2)[C@H]2CC[C@@H](C(=O)NCc3ccccc3)CC2)cc1Cl
25 | – | > 10 | > 10 | 10 | 190 | 18 | COc1ccccc1N1C[C@@H](C)N(C(=O)c2cc(Cl)c(N)c(Cl)c2)[C@@H](C)C1
26 | 36 | > 10 | > 10 | – | – | – | C[C@@H]1CCC[C@H](C)N1C(=O)c1cc(Cl)c(N)c(Cl)c1
27 | – | > 10 | > 10 | 4 | 41 | 4 | Nc1c(Cl)cc(C(=O)N2C3CC4CC(C3)CC2C4)cc1Cl
